Data published in publication PMC5571522, “Cryptotanshinone inhibition of mammalian target of rapamycin pathway is dependent on oestrogen receptor alpha in breast cancer” (Journal of Cellular and Molecular Medicine, 2017).

Biological target: T1, oestrogen receptor alpha (ERα) (Homo sapiens, UniProt P03372)
T1 construct: gene ESR1
Assay: HitHunter Estrogen Assay Kit competitive binding (enzyme fragment complementation); supported by ERE-luciferase inhibition in MCF-7 cells

T1 sequence (P03372 whole entry): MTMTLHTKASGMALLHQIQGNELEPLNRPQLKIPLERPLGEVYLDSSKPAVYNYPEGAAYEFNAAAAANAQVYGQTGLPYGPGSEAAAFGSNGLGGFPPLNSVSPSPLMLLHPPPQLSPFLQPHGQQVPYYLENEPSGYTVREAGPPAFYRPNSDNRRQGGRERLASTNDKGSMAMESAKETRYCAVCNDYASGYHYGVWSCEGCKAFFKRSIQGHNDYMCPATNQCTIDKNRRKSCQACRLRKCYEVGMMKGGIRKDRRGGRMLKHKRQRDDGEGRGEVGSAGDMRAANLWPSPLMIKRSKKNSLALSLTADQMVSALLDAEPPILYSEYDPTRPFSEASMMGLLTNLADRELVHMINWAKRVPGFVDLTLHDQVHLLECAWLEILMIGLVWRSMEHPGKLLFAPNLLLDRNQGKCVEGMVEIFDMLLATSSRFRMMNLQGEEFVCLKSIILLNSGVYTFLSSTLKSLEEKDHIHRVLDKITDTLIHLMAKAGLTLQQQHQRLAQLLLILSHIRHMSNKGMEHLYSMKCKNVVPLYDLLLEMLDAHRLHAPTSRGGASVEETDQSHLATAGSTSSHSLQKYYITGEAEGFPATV

C[C@H]1COC2=C1C(=O)C(=O)c1c2ccc2c1CCCC2(C)C [CPT, Cryptotanshinone]
EC50: ~9.68 nM
